# Article PMC9048505 (RSC Advances, 2020)
# Key:
# HCT-116 = assay: In vitro anti-proliferative activity, MTT assay, HCT-116; assay type: cell-based, human; details: for IC50: Homo sapiens, HCT-116, MTT, 24 h treatment, mean ± S.D. of three separate experiments
# Experimental: (§1) The cells were obtained from ATCC (American Type Culture Collection) via the Holding company for biological products and vaccines (VACSERA) (Cairo, Egypt). […] After incubation period, the cell lines were treated with different concentration of the synthesized compounds and incubated for 24 h. After treatment by 24 h, 20 μL of MTT solution (5 mg mL^−1) was added and incubated for 4 h. Dimethyl sulfoxide (100 μL) was added into each well to dissolve the formed purple formazan. […] The relative cell viability in percentage was calculated as (A570 of treated samples/A570 of untreated sample) X 100.
# HepG-2 = assay: In vitro anti-proliferative activity, MTT assay, HepG-2; assay type: cell-based, human; details: for IC50: Homo sapiens, HepG2, MTT, 24 h treatment, mean ± S.D. of three separate experiments
# Experimental: as §1
# MCF-7 = assay: In vitro anti-proliferative activity, MTT assay, MCF-7; assay type: cell-based, human; details: for IC50: Homo sapiens, MCF7, MTT, 24 h treatment, mean ± S.D. of three separate experiments
# Experimental: as §1
# purified bovine tubulin = biological target: T1, purified bovine tubulin (Bos taurus, UniProt P81947+Q6B856); assay: In vitro tubulin polymerization assay; assay type: biochemical; details: purified bovine tubulin 10 μM, 37 °C; read-out: IC50 Tubulin polymerization inhibition
# T1 construct: purified bovine tubulin (10 μM); from tissue; host or cells: bovine
# Experimental: The inhibition assay on microtubule polymerization was evaluated turbidimetrically using a fluorescent plate reader.[52]
# T1 sequence (Q6B856 whole entry): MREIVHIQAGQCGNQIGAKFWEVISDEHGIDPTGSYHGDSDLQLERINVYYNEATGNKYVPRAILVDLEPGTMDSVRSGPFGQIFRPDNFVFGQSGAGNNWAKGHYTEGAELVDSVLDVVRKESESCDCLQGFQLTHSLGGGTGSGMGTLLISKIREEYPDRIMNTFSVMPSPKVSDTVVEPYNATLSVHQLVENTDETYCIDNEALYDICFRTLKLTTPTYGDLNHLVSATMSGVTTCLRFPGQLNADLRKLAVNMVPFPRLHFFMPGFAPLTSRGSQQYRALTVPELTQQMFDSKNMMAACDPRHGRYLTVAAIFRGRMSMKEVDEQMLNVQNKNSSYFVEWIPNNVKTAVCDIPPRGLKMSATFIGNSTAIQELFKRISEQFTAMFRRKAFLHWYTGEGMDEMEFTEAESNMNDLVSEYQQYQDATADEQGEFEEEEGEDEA
# T1 sequence (P81947 whole entry): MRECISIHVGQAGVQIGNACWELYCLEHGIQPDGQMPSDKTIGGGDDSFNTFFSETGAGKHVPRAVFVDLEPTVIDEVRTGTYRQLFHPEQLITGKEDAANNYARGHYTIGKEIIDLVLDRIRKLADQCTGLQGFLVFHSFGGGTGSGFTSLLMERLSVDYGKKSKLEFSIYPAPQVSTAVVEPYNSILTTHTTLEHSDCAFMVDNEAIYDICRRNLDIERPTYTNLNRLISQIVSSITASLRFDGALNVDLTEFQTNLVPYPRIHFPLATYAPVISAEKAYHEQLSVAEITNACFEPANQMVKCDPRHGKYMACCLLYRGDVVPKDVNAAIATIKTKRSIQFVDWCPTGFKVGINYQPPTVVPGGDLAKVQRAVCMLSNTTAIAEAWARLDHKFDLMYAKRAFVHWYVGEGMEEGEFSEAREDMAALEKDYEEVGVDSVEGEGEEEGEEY
IC50 (HCT-116) [µM],IC50 (MCF-7) [µM],melting point [°C],IC50 (purified bovine tubulin) [µM],Compound,IC50 (HepG-2) [µM],times as active as colchicine against HCT-116 (HCT-116; ratio of IC50 values) [times],times as active as colchicine against HepG-2 (HepG-2; ratio of IC50 values) [times],times as active as colchicine against MCF-7 (MCF-7; ratio of IC50 values) [times]
35.5 ± 2,32.1 ± 1.2,243 to 245,,"COc1ccc(/C=C2/N=C(N/N=C(\C)c3cccs3)SC2=O)cc1 [Compound 8a, 4-((E)-4-Methoxybenzylidene)-2-(2-((E)-1-(thiophen-2-yl)ethylidene)hydra-zinyl)thiazol-5(4H)-one]",26.6 ± 0.9,,,
> 50,> 50,,,"C/C(=N\NC(N)=S)c1cccs1 [Compound 7a, (E)-2-(1-(Thiophen-2-yl)ethylidene)hydrazine-1-carbothioamide]",> 50,,,
24.2 ± 0.7,33.6 ± 0.9,214 to 216,0.0391 ± 0.001,"C/C(=N\NC1=N/C(=C/c2cccs2)C(=O)S1)c1cccs1 [Compound 9a, (E)-2-(2-((E)-1-(Thiophen-2-yl)ethylidene)hydrazinyl)-4-(thiophen-2-ylmethylene)thiazol-5(4H)-one]",21.9 ± 0.9,,,
18.7 ± 0.6,18.2 ± 0.6,252 to 254,,"C/C(=N\NC1=N/C(=C/c2ccc(Cl)cc2)C(=O)S1)c1cccs1 [Compound 8b, 4-((E)-4-Chlorobenzylidene)-2-(2-((E)-1-(thiophen-2-yl)ethylidene)hydra-zinyl)thiazol-5(4H)-one]",19.5 ± 0.7,,,
12.9 ± 0.6,17.4 ± 0.5,240 to 242,,"COc1ccc(/C=C2/N=C(N/N=C(\C)c3ccc(OC)c(OC)c3)SC2=O)cc1 [Compound 4g, 2-(2-((E)-1-(3,4-Dimethoxyphenyl)ethylidene)hydrazinyl)-4-((E)-4-methoxybenzylidene) thiazol-5(4H)-one]",8.68 ± 0.1,,,
11.7 ± 0.3,13.9 ± 0.5,> 300,0.05001 ± 0.0004,"COc1ccc(/C(C)=N/NC2=N/C(=C/c3ccc(O)cc3O)C(=O)S2)cc1OC [Compound 4k, 4-((E)-2,4-Dihydroxybenzylidene)-2-(2-((E)-1-(3,4-dimethoxyphenyl)ethylid-ene)hydrazinyl)thiazol-5(4H)-one]",12.2 ± 0.4,,,
5.66 ± 0.1,4.46 ± 0.1,,0.00933 ± 0.0003,"C/C(=N\NC1=N/C(=C/c2ccc(O)cc2O)C(=O)S1)c1ccc(C)cc1 [Compound 4f, 4-((E)-2,4-Dihydroxybenzylidene)-2-(2-((E)-1-(p-tolyl)ethylidene)hydrazinyl) thiazol-5(4H)-one]",2.89 ± 0.1,1.64,2.57,2.34
41.8 ± 1.6,48.8 ± 1.4,290 to 292,,"COc1ccc(/C(C)=N/NC2=N/C(=C/c3ccc(O)cc3)C(=O)S2)cc1OC [Compound 4h, 2-(2-((E)-1-(3,4-Dimethoxyphenyl)ethylidene)hydrazinyl)-4-((E)-4-hydroxybenzylidene)thiazol-5(4H)-one]",37.5 ± 0.8,,,
8.96 ± 0.2,7.65 ± 0.2,> 300,0.0116 ± 0.0002,"C/C(=N\NC1=N/C(=C/c2ccc(O)cc2O)C(=O)S1)c1cccs1 [Compound 8f, 4-((E)-2,4-Dihydroxybenzylidene)-2-(2-((E)-1-(thiophen-2-yl)ethylidene) hydrazinyl) thiazol-5(4H)-one]",3.23 ± 0.1,,,
18.2 ± 1.3,22.4 ± 1,266 to 268,,"C/C(=N\NC1=N/C(=C/c2ccc(Cl)cc2)C(=O)S1)c1ccc(C)cc1 [Compound 4b, 4-((E)-4-Chlorobenzylidene)-2-(2-((E)-1-(p-tolyl)ethylidene)hydrazinyl) thiazol-5(4H)-one]",11.14 ± 0.1,,,
6.59 ± 0.1,9.29 ± 0.1,288 to 290,0.0142 ± 0.0003,"COc1ccc(/C=C2/N=C(N/N=C(\C)c3ccco3)SC2=O)cc1 [Compound 8g, 2-(2-((E)-1-(Furan-2-yl)ethylidene)hydrazinyl)-4-((E)-4-methoxybenzylid-ene)thiazol-5(4H)-one]",4.69 ± 0.1,,,
> 50,> 50,203 to 205,,"C/C(=N\NC1=N/C(=C/c2cccs2)C(=O)S1)c1ccco1 [Compound 9b, (E)-2-(2-((E)-1-(Furan-2-yl)ethylidene)hydrazinyl)-4-(thiophen-2-ylmethylene) thiazol-5(4H)-one]",45.1 ± 0.7,,,
5.55 ± 0.1,9.15 ± 0.2,240 to 242,0.0135 ± 0.0008,"COc1ccc(/C=C2/N=C(N/N=C(\C)c3ccco3)SC2=O)cc1OC [Compound 8k, 4-((E)-3,4-Dimethoxybenzylidene)-2-(2-((E)-1-(furan-2-yl)ethylidene)hydra-zinyl)thiazol-5(4H)-one]",4.58 ± 0.1,,,
17.2 ± 0.9,19 ± 0.5,178 to 180,,"C/C(=N\NC1=N/C(=C/c2ccc(O)cc2)C(=O)S1)c1cccs1 [Compound 8c, 4-((E)-4-Hydroxybenzylidene)-2-(2-((E)-1-(thiophen-2-yl)ethylidene)hydra-zinyl)thiazol-5(4H)-one]",12.2 ± 0.3,,,
> 50,> 50,,,"C/C(=N\NC(N)=S)c1ccc(C)cc1 [Compound 3a, (E)-2-(1-(p-Tolyl)ethylidene)hydrazine-1-carbothioamide]",> 50,,,
22.9 ± 0.7,43.3 ± 1.8,232 to 236,,"COc1ccc(/C=C2/N=C(N/N=C(\C)c3ccc(OC)c(OC)c3)SC2=O)cc1OC [Compound 4j, 4-((E)-3,4-Dimethoxybenzylidene)-2-(2-((E)-1-(3,4-dimethoxyphenyl)ethylid-ene)hydrazinyl)thiazol-5(4H)-one]",32.6 ± 0.9,,,
48.6 ± 1.8,> 50,274 to 276,,"C/C(=N\NC1=N/C(=C/c2ccc(Cl)cc2Cl)C(=O)S1)c1cccs1 [Compound 8d, 4-((E)-2,4-Dichlorobenzylidene)-2-(2-((E)-1-(thiophen-2-yl)ethylidene) hydrazinyl)thiazol-5(4H)-one]",45.3 ± 1.2,,,
38.5 ± 2.5,41.8 ± 1.2,272 to 274,,"C/C(=N\NC1=N/C(=C/c2ccc(O)cc2)C(=O)S1)c1ccc(C)cc1 [Compound 4c, 4-((E)-4-Hydroxybenzylidene)-2-(2-((E)-1-(p-tolyl)ethylidene)hydrazinyl) thiazol-5(4H)-one]",35.2 ± 0.8,,,
15.6 ± 0.4,22.7 ± 0.7,293 to 295,0.0478 ± 0.0021,"C/C(=N\NC1=N/C(=C/c2ccc(O)cc2)C(=O)S1)c1ccco1 [Compound 8i, 2-(2-((E)-1-(Furan-2-yl)ethylidene)hydrazinyl)-4-((E)-4-hydroxybenzylid-ene)thiazol-5(4H)-one]",12.5 ± 0.2,,,
45.6 ± 3.5,> 50,248 to 250,,"COc1ccc(/C=C2/N=C(N/N=C(\C)c3ccc(C)cc3)SC2=O)cc1 [Compound 4a, 4-((E)-4-Methoxybenzylidene)-2-(2-((E)-1-(p-tolyl)ethylidene)hydrazinyl) thiazol-5(4H)-one]",34 ± 30.9,,,
17.3 ± 1.4,22.4 ± 1,205 to 207,0.0445 ± 0.0023,"COc1ccc(/C(C)=N/NC(N)=S)cc1OC [Compound 3b, (E)-2-(1-(3,4-Dimethoxyphenyl)ethylidene)hydrazine-1-carbothioamide]",12.9 ± 0.4,,,
34.7 ± 1,25.8 ± 0.6,248 to 250,,"COc1ccc(/C=C2/N=C(N/N=C(\C)c3cccs3)SC2=O)cc1OC [Compound 8e, 4-((E)-3,4-Dimethoxybenzylidene)-2-(2-((E)-1-(thiophen-2-yl)ethylidene) hydrazinyl) thiazol-5(4H)-one]",27.8 ± 0.5,,,
> 50,> 50,,,"C/C(=N\NC(N)=S)c1ccco1 [Compound 7b, (E)-2-(1-(Furan-2-yl)ethylidene)hydrazine-1-carbothioamide]",> 50,,,
18.4 ± 0.2,21.8 ± 1,208 to 210,,"COc1ccc(/C(C)=N/NC2=N/C(=C/c3cccs3)C(=O)S2)cc1OC [Compound 5b, (E)-2-(2-((E)-1-(3,4-Dimethoxyphenyl)ethylidene)hydrazinyl)-4-(thiophen-2-ylmethylene)thiazol-5(4H)-one]",17.5 ± 0.7,,,
40.5 ± 1.1,40.1 ± 1.9,> 300,,"COc1ccc(/C(C)=N/NC2=N/C(=C/c3ccc(Cl)cc3Cl)C(=O)S2)cc1OC [Compound 4i, 4-((E)-2,4-Dichlorobenzylidene)-2-(2-((E)-1-(3,4-dimethoxyphenyl)ethylid-ene)hydrazineyl) thiazol-5(4H)-one]",31.9 ± 0.8,,,
> 50,> 50,264 to 266,,"C/C(=N\NC1=N/C(=C/c2ccc(Cl)cc2Cl)C(=O)S1)c1ccco1 [Compound 8j, 4-((E)-2,4-Dichlorobenzylidene)-2-(2-((E)-1-(furan-2-yl)ethylidene) hydrazinyl) thiazol-5(4H)-one]",> 50,,,
